# Test results published in patent publication US8192962B2, “Processes for detecting toxic substances” (Daikin Industries, Ltd., priority 2001, dated 2012).
# System: Detoxification protein genes
# Assay: DNA chip mRNA expression in yeast, detoxification protein genes (Table 8)
# Format: cell-based, Saccharomyces cerevisiae S288C
# Method in brief: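 S. cerevisiae S288C grown at 25° C. in YPD to log phase, then exposed 2 h to a toxicant at a growth-inhibiting, non-lethal concentration; untreated cells as control. Poly(A) mRNA reverse-transcribed with Cy3-dUTP or Cy5-dUTP, hybridized >12 h at 65° C. to whole-genome yeast DNA chip; value = fluorescence ratio treated/untreated.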
smiles,measurement,setting,value
"[Cl][Hg][Cl] [(3), HgCl2]",The level of expressed mRNA in the presence of chemical substance/The level of expressed mRNA in the absence of chemical substance,yeast gene YBL064C,3.9
same,The level of expressed mRNA in the presence of chemical substance/The level of expressed mRNA in the absence of chemical substance,yeast gene YBR008C,4.9
same,The level of expressed mRNA in the presence of chemical substance/The level of expressed mRNA in the absence of chemical substance,yeast gene YBR145W,2.8
same,The level of expressed mRNA in the presence of chemical substance/The level of expressed mRNA in the absence of chemical substance,yeast gene YBR244W,2.0
same,The level of expressed mRNA in the presence of chemical substance/The level of expressed mRNA in the absence of chemical substance,yeast gene YBR293W,1.0
same,The level of expressed mRNA in the presence of chemical substance/The level of expressed mRNA in the absence of chemical substance,yeast gene YCL035C,1.5
same,The level of expressed mRNA in the presence of chemical substance/The level of expressed mRNA in the absence of chemical substance,yeast gene YCL069W,0.9
same,The level of expressed mRNA in the presence of chemical substance/The level of expressed mRNA in the absence of chemical substance,yeast gene YCR083W,1.5
same,The level of expressed mRNA in the presence of chemical substance/The level of expressed mRNA in the absence of chemical substance,yeast gene YDL100C,1.1
same,The level of expressed mRNA in the presence of chemical substance/The level of expressed mRNA in the absence of chemical substance,yeast gene YDL168W,2.1
same,The level of expressed mRNA in the presence of chemical substance/The level of expressed mRNA in the absence of chemical substance,yeast gene YDR256C,0.7
same,The level of expressed mRNA in the presence of chemical substance/The level of expressed mRNA in the absence of chemical substance,yeast gene YDR453C,4.4
same,The level of expressed mRNA in the presence of chemical substance/The level of expressed mRNA in the absence of chemical substance,yeast gene YDR513W,2.3
same,The level of expressed mRNA in the presence of chemical substance/The level of expressed mRNA in the absence of chemical substance,yeast gene YDR538W,2.4
same,The level of expressed mRNA in the presence of chemical substance/The level of expressed mRNA in the absence of chemical substance,yeast gene YEL027W,3.4
same,The level of expressed mRNA in the presence of chemical substance/The level of expressed mRNA in the absence of chemical substance,yeast gene YEL065W,1.2
same,The level of expressed mRNA in the presence of chemical substance/The level of expressed mRNA in the absence of chemical substance,yeast gene YER185W,2.1
same,The level of expressed mRNA in the presence of chemical substance/The level of expressed mRNA in the absence of chemical substance,yeast gene YFL050C,1.1
same,The level of expressed mRNA in the presence of chemical substance/The level of expressed mRNA in the absence of chemical substance,yeast gene YGL013C,0.8
same,The level of expressed mRNA in the presence of chemical substance/The level of expressed mRNA in the absence of chemical substance,yeast gene YGL254W,0.8
same,The level of expressed mRNA in the presence of chemical substance/The level of expressed mRNA in the absence of chemical substance,yeast gene YGR088W,7.7
same,The level of expressed mRNA in the presence of chemical substance/The level of expressed mRNA in the absence of chemical substance,yeast gene YGR138C,1.0
same,The level of expressed mRNA in the presence of chemical substance/The level of expressed mRNA in the absence of chemical substance,yeast gene YGR197C,2.5
same,The level of expressed mRNA in the presence of chemical substance/The level of expressed mRNA in the absence of chemical substance,yeast gene YGR209C,3.5
same,The level of expressed mRNA in the presence of chemical substance/The level of expressed mRNA in the absence of chemical substance,yeast gene YGR224W,1.2
same,The level of expressed mRNA in the presence of chemical substance/The level of expressed mRNA in the absence of chemical substance,yeast gene YHL040C,1.5
same,The level of expressed mRNA in the presence of chemical substance/The level of expressed mRNA in the absence of chemical substance,yeast gene YHL047C,1.0
same,The level of expressed mRNA in the presence of chemical substance/The level of expressed mRNA in the absence of chemical substance,yeast gene YHR008C,4.8
same,The level of expressed mRNA in the presence of chemical substance/The level of expressed mRNA in the absence of chemical substance,yeast gene YHR048W,1.4
same,The level of expressed mRNA in the presence of chemical substance/The level of expressed mRNA in the absence of chemical substance,yeast gene YHR053C,0.7
same,The level of expressed mRNA in the presence of chemical substance/The level of expressed mRNA in the absence of chemical substance,yeast gene YHR055C,0.8
same,The level of expressed mRNA in the presence of chemical substance/The level of expressed mRNA in the absence of chemical substance,yeast gene YIR002C,0.5
same,The level of expressed mRNA in the presence of chemical substance/The level of expressed mRNA in the absence of chemical substance,yeast gene YIR038C,4.6
same,The level of expressed mRNA in the presence of chemical substance/The level of expressed mRNA in the absence of chemical substance,yeast gene YJL101C,2.1
same,The level of expressed mRNA in the presence of chemical substance/The level of expressed mRNA in the absence of chemical substance,yeast gene YJR104C,2.9
same,The level of expressed mRNA in the presence of chemical substance/The level of expressed mRNA in the absence of chemical substance,yeast gene YKL026C,1.2
same,The level of expressed mRNA in the presence of chemical substance/The level of expressed mRNA in the absence of chemical substance,yeast gene YKL064W,0.4
same,The level of expressed mRNA in the presence of chemical substance/The level of expressed mRNA in the absence of chemical substance,yeast gene YKR066C,5.5
same,The level of expressed mRNA in the presence of chemical substance/The level of expressed mRNA in the absence of chemical substance,yeast gene YKR105C,0.9
same,The level of expressed mRNA in the presence of chemical substance/The level of expressed mRNA in the absence of chemical substance,yeast gene YKR106W,2.1
same,The level of expressed mRNA in the presence of chemical substance/The level of expressed mRNA in the absence of chemical substance,yeast gene YLL028W,4.6
same,The level of expressed mRNA in the presence of chemical substance/The level of expressed mRNA in the absence of chemical substance,yeast gene YLL057C,1.8
same,The level of expressed mRNA in the presence of chemical substance/The level of expressed mRNA in the absence of chemical substance,yeast gene YLL060C,2.3
same,The level of expressed mRNA in the presence of chemical substance/The level of expressed mRNA in the absence of chemical substance,yeast gene YLR043C,2.0
same,The level of expressed mRNA in the presence of chemical substance/The level of expressed mRNA in the absence of chemical substance,yeast gene YLR046C,0.9
same,The level of expressed mRNA in the presence of chemical substance/The level of expressed mRNA in the absence of chemical substance,yeast gene YML028W,4.4
same,The level of expressed mRNA in the presence of chemical substance/The level of expressed mRNA in the absence of chemical substance,yeast gene YML116W,1.5
same,The level of expressed mRNA in the presence of chemical substance/The level of expressed mRNA in the absence of chemical substance,yeast gene YMR015C,1.9
same,The level of expressed mRNA in the presence of chemical substance/The level of expressed mRNA in the absence of chemical substance,yeast gene YMR038C,1.8
same,The level of expressed mRNA in the presence of chemical substance/The level of expressed mRNA in the absence of chemical substance,yeast gene YNL239W,2.4
same,The level of expressed mRNA in the presence of chemical substance/The level of expressed mRNA in the absence of chemical substance,yeast gene YNL241C,4.3
same,The level of expressed mRNA in the presence of chemical substance/The level of expressed mRNA in the absence of chemical substance,yeast gene YNL259C,1.1
same,The level of expressed mRNA in the presence of chemical substance/The level of expressed mRNA in the absence of chemical substance,yeast gene YOL158C,2.4
same,The level of expressed mRNA in the presence of chemical substance/The level of expressed mRNA in the absence of chemical substance,yeast gene YOR031W,1.3
same,The level of expressed mRNA in the presence of chemical substance/The level of expressed mRNA in the absence of chemical substance,yeast gene YOR153W,5.1
same,The level of expressed mRNA in the presence of chemical substance/The level of expressed mRNA in the absence of chemical substance,yeast gene YOR247W,3.6
